In PubChem BioAssay AID2060887 (Molecular Pharmacology Branch, DTP, NCI, 2025):
Each block holds one compound with its values, some of them ahead of it.

Tested on: 782815-120-R-J1-PDC complex spheroid viability
Assay: Anticancer human tumor 782815-120-R-J1-PDC patient-derived colon adenocarcinoma cell line growth inhibition [RAS]
Settings: for IC50: curve of first compound; for viability, T/C: stronger effect = lower value
Method in brief: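 Agents were tested in combination matrices in half-log decrements from a top concentration at or near clinical Cmax (10 microM if undetermined). Targets were multi-cell spheroids of tumour lines plus HUVEC and MSC stromal cells.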

[1] = second compound 0.000949 µM, first compound 0.0316 µM
[2] = second compound 0.000949 µM, first compound 0.1 µM
[3] = second compound 0.000949 µM, first compound 0.316 µM
[4] = second compound 0.000949 µM, first compound 1 µM
[5] = second compound 0.003 µM, first compound 0.0316 µM
[6] = second compound 0.003 µM, first compound 0.1 µM
[7] = second compound 0.003 µM, first compound 0.316 µM
[8] = second compound 0.003 µM, first compound 1 µM
[9] = second compound 0.00949 µM, first compound 0.0316 µM
[10] = second compound 0.00949 µM, first compound 0.1 µM
[11] = second compound 0.00949 µM, first compound 0.316 µM
[12] = second compound 0.00949 µM, first compound 1 µM
[13] = second compound 0.03 µM, first compound 0.0316 µM
[14] = second compound 0.03 µM, first compound 0.1 µM
[15] = second compound 0.03 µM, first compound 0.316 µM
[16] = second compound 0.03 µM, first compound 1 µM
[17] = second compound 0.0949 µM, first compound 0.0316 µM
[18] = second compound 0.0949 µM, first compound 0.1 µM
[19] = second compound 0.0949 µM, first compound 0.316 µM
[20] = second compound 0.0949 µM, first compound 1 µM
[21] = second compound 0.3 µM, first compound 0.0316 µM
[22] = second compound 0.3 µM, first compound 0.1 µM
[23] = second compound 0.3 µM, first compound 0.316 µM
[24] = second compound 0.3 µM, first compound 1 µM
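Note: spheroids exposed to compounds for 7 days before reading.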
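Throughout, for viability, T/C: 100% = DMSO vehicle control viability.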

IC50 (second compound 0.000949 µM): < 31.6 nM
IC50 (second compound 0.003 µM): < 31.6 nM
IC50 (second compound 0.00949 µM): < 31.6 nM
IC50 (second compound 0.03 µM): < 31.6 nM
IC50 (second compound 0.0949 µM): < 31.6 nM
IC50 (second compound 0.3 µM): < 31.6 nM
Structure (SMILES): CC(=O)OC12COC1CC(O)C1(C)C(=O)C(O)C3=C(C)C(OC(=O)C(O)C(NC(=O)OC(C)(C)C)c4ccccc4)CC(O)(C(OC(=O)c4ccccc4)C21)C3(C)C (stereo unspecified) + CCn1c(-c2cccnc2C(C)OC)c2c3cc(ccc31)N1CCOC(CC(NC(=O)C(C(C)C)N(C)C(=O)C3(F)CCN(C(=O)C#CC(C)(C)N(C)C)CC3)C(=O)N3CCCC(N3)C(=O)OCC(C)(C)C2)C1
viability, T/C [1]: 31.7%
viability, T/C [2]: 27.2%
viability, T/C [3]: 28.5%
viability, T/C [4]: 30.2%
viability, T/C (second compound 0.000949 µM, first compound 3.16 µM): 27.4%
viability, T/C (second compound 0.000949 µM, first compound 10 µM): 32.5%
viability, T/C [5]: 33.1%
viability, T/C [6]: 26.5%
viability, T/C [7]: 28.2%
viability, T/C [8]: 32.6%
viability, T/C (second compound 0.003 µM, first compound 3.16 µM): 27.9%
viability, T/C (second compound 0.003 µM, first compound 10 µM): 30.2%
viability, T/C [9]: 29%
viability, T/C [10]: 29.7%
viability, T/C [11]: 29.9%
viability, T/C [12]: 32.5%
viability, T/C (second compound 0.00949 µM, first compound 3.16 µM): 26.1%
viability, T/C (second compound 0.00949 µM, first compound 10 µM): 28.2%
viability, T/C [13]: 34.2%
viability, T/C [14]: 29.4%
viability, T/C [15]: 24%
viability, T/C [16]: 27.7%
viability, T/C (second compound 0.03 µM, first compound 3.16 µM): 29.5%
viability, T/C (second compound 0.03 µM, first compound 10 µM): 27.7%
viability, T/C [17]: 28.6%
viability, T/C [18]: 29.9%
viability, T/C [19]: 25.7%
viability, T/C [20]: 31.2%
viability, T/C (second compound 0.0949 µM, first compound 3.16 µM): 26%
viability, T/C (second compound 0.0949 µM, first compound 10 µM): 26.7%
viability, T/C [21]: 22.7%
viability, T/C [22]: 27.9%
viability, T/C [23]: 23.3%
viability, T/C [24]: 21.9%
viability, T/C (second compound 0.3 µM, first compound 3.16 µM): 25.2%
viability, T/C (second compound 0.3 µM, first compound 10 µM): 24.4%

IC50 (second compound 0.000949 µM): 3.67 nM
IC50 (second compound 0.003 µM): 3.95 nM
IC50 (second compound 0.00949 µM): 3.98 nM
IC50 (second compound 0.03 µM): 2.91 nM
IC50 (second compound 0.0949 µM): 3.69 nM
IC50 (second compound 0.3 µM): 3.26 nM
Structure (SMILES): CCc1c2c(nc3ccc(O)cc13)-c1cc3c(c(=O)n1C2)COC(=O)[C@]3(O)CC + CCn1c(-c2cccnc2C(C)OC)c2c3cc(ccc31)N1CCOC(CC(NC(=O)C(C(C)C)N(C)C(=O)C3(F)CCN(C(=O)C#CC(C)(C)N(C)C)CC3)C(=O)N3CCCC(N3)C(=O)OCC(C)(C)C2)C1
viability, T/C (second compound 0.000949 µM, first compound 0.000949 µM): 84%
viability, T/C (second compound 0.000949 µM, first compound 0.003 µM): 56.1%
viability, T/C (second compound 0.000949 µM, first compound 0.00949 µM): 22.1%
viability, T/C (second compound 0.000949 µM, first compound 0.03 µM): 8.78%
viability, T/C (second compound 0.000949 µM, first compound 0.0949 µM): 2.94%
viability, T/C (second compound 0.000949 µM, first compound 0.3 µM): 1.62%
viability, T/C (second compound 0.003 µM, first compound 0.000949 µM): 89.9%
viability, T/C (second compound 0.003 µM, first compound 0.003 µM): 59.1%
viability, T/C (second compound 0.003 µM, first compound 0.00949 µM): 21.3%
viability, T/C (second compound 0.003 µM, first compound 0.03 µM): 9.28%
viability, T/C (second compound 0.003 µM, first compound 0.0949 µM): 4.83%
viability, T/C (second compound 0.003 µM, first compound 0.3 µM): 1.63%
viability, T/C (second compound 0.00949 µM, first compound 0.000949 µM): 86.5%
viability, T/C (second compound 0.00949 µM, first compound 0.003 µM): 59.2%
viability, T/C (second compound 0.00949 µM, first compound 0.00949 µM): 22.6%
viability, T/C (second compound 0.00949 µM, first compound 0.03 µM): 11.7%
viability, T/C (second compound 0.00949 µM, first compound 0.0949 µM): 3.57%
viability, T/C (second compound 0.00949 µM, first compound 0.3 µM): 1.64%
viability, T/C (second compound 0.03 µM, first compound 0.000949 µM): 91.9%
viability, T/C (second compound 0.03 µM, first compound 0.003 µM): 49.3%
viability, T/C (second compound 0.03 µM, first compound 0.00949 µM): 19%
viability, T/C (second compound 0.03 µM, first compound 0.03 µM): 10.1%
viability, T/C (second compound 0.03 µM, first compound 0.0949 µM): 4.83%
viability, T/C (second compound 0.03 µM, first compound 0.3 µM): 1.53%
viability, T/C (second compound 0.0949 µM, first compound 0.000949 µM): 82.5%
viability, T/C (second compound 0.0949 µM, first compound 0.003 µM): 57%
viability, T/C (second compound 0.0949 µM, first compound 0.00949 µM): 18.8%
viability, T/C (second compound 0.0949 µM, first compound 0.03 µM): 8.68%
viability, T/C (second compound 0.0949 µM, first compound 0.0949 µM): 5.21%
viability, T/C (second compound 0.0949 µM, first compound 0.3 µM): 1.73%
viability, T/C (second compound 0.3 µM, first compound 0.000949 µM): 86.1%
viability, T/C (second compound 0.3 µM, first compound 0.003 µM): 53%
viability, T/C (second compound 0.3 µM, first compound 0.00949 µM): 15.4%
viability, T/C (second compound 0.3 µM, first compound 0.03 µM): 8.17%
viability, T/C (second compound 0.3 µM, first compound 0.0949 µM): 2.87%
viability, T/C (second compound 0.3 µM, first compound 0.3 µM): 1.16%

IC50 (second compound 0.000949 µM): 29.3 nM
IC50 (second compound 0.003 µM): 42.4 nM
IC50 (second compound 0.00949 µM): 31.5 nM
IC50 (second compound 0.03 µM): 38 nM
IC50 (second compound 0.0949 µM): 50 nM
IC50 (second compound 0.3 µM): 47.6 nM
Structure (SMILES): Nc1ccn(C2OC(CO)C(O)C2(F)F)c(=O)n1 (stereo unspecified) + CCn1c(-c2cccnc2C(C)OC)c2c3cc(ccc31)N1CCOC(CC(NC(=O)C(C(C)C)N(C)C(=O)C3(F)CCN(C(=O)C#CC(C)(C)N(C)C)CC3)C(=O)N3CCCC(N3)C(=O)OCC(C)(C)C2)C1
viability, T/C (second compound 0.000949 µM, first compound 0.00316 µM): 89.4%
viability, T/C (second compound 0.000949 µM, first compound 0.01 µM): 64.7%
viability, T/C [1]: 50.6%
viability, T/C [2]: 37.2%
viability, T/C [3]: 23.5%
viability, T/C [4]: 23.5%
viability, T/C (second compound 0.003 µM, first compound 0.00316 µM): 95%
viability, T/C (second compound 0.003 µM, first compound 0.01 µM): 71.3%
viability, T/C [5]: 59.3%
viability, T/C [6]: 34.6%
viability, T/C [7]: 27.3%
viability, T/C [8]: 24.5%
viability, T/C (second compound 0.00949 µM, first compound 0.00316 µM): 96.2%
viability, T/C (second compound 0.00949 µM, first compound 0.01 µM): 71.8%
viability, T/C [9]: 50.8%
viability, T/C [10]: 34.7%
viability, T/C [11]: 29.1%
viability, T/C [12]: 25.7%
viability, T/C (second compound 0.03 µM, first compound 0.00316 µM): 85.4%
viability, T/C (second compound 0.03 µM, first compound 0.01 µM): 75.7%
viability, T/C [13]: 53.2%
viability, T/C [14]: 33.6%
viability, T/C [15]: 27.2%
viability, T/C [16]: 25.7%
viability, T/C (second compound 0.0949 µM, first compound 0.00316 µM): 83.6%
viability, T/C (second compound 0.0949 µM, first compound 0.01 µM): 71.8%
viability, T/C [17]: 57.9%
viability, T/C [18]: 38.7%
viability, T/C [19]: 28.1%
viability, T/C [20]: 20.1%
viability, T/C (second compound 0.3 µM, first compound 0.00316 µM): 85.3%
viability, T/C (second compound 0.3 µM, first compound 0.01 µM): 71.2%
viability, T/C [21]: 58.4%
viability, T/C [22]: 38.5%
viability, T/C [23]: 24.2%
viability, T/C [24]: 22.1%
